The values below come from ChEMBL document CHEMBL1134119, “Total synthesis of human chymase inhibitor methyllinderone and structure--activity relationships of its derivatives” (Bioorg Med Chem Lett, 2001).

In assay [1] the target is T1, Chymase (Homo sapiens, UniProt P23946).
T1 sequence (P23946 whole entry): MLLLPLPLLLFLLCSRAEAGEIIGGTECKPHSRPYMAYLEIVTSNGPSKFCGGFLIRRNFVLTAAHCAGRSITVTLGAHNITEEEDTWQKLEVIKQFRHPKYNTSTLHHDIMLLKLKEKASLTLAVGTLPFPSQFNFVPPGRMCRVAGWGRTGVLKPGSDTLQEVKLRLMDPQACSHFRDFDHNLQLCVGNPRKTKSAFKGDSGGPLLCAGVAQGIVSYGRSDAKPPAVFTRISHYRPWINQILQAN
In words: Compound was evaluated for its inhibitory activity against human Serine protease chymase.

In assay [2] the target is T1, Chymase. The assay can be described thus: Compound was evaluated for its inhibitory activity against human chymase.

What is called IC50 is the concentration at which inhibition is half-maximal. Low values mean greater potency in that assay, high ones weaker potency in that assay. Regarding `COC(CCc1ccccc1)=C1C(=O)C=CC1=O`, the IC50 on Chymase [1] was determined as 40 µM. Compound `COC(/C=C/c1ccccc1)=C1C(=O)C(OC)=C(OC)C1=O` displayed an IC50 against Chymase [1] of 30 µM. The compound `COC(C)=C1C(=O)C=CC1=O` gave an IC50 against Chymase [2] above 1000 µM.
